Patent US9404080B2, “Human taste cells capable of continuous proliferation” (B.R.A.I.N. BIOTECHNOLOGY RESEARCH AND INFORMATION NETWORK AG, priority 2012, dated 2016)
“Also recorded” adds a separate entry of the source.

Legend:
[1] = system: Non-taste cells including HEK293 cells, Cal33 cells, and non-lingual, proliferating primary cells isolated from the oral cavity; test: Fluo-4 fluorescent calcium imaging assay in non-taste control cells; assay type: cell-based, human
Protocol: Briefly, human taste cells were seeded in 96-well plates and stained with Fluo4-AM. Non-taste cells including HEK293 cells, Cal33 cells, and non-lingual, proliferating primary cells isolated from the oral cavity served as a control. Changes in Ca^2+-dependent Fluo-4 fluorescence were recorded on a Molecular Devices fluorescence microplate reader. Measurement was started by addition of increasing concentrations of the taste molecules. […] Calcium signals for each test molecule are depicted as relative fluorescence units (RFU).
(§1) To test, whether stimulation of human taste cells with these taste molecules leads to changes in intracellular calcium the Fluo-4 fluorescent calcium imaging assay was performed as described above. Non-taste cells including HEK293 cells and non-lingual, proliferating primary cells isolated from the oral cavity served as a control and were treated equally throughout the procedure. Changes in Ca^2+-dependent Fluo-4 fluorescence were recorded on a Molecular Devices Fluorescence microplate reader. Measurement was started by addition of increasing concentrations of the taste molecules in KH-buffer to the cells. KH-buffer served as negative control and KH-buffer containing 1 μM ionomycin served as a positive control. […] Calcium signals for each test molecule are depicted as Relative Fluorescence Units (RFU), which means that calcium mobilization in response to taste molecules was calculated dF/F0, with dF is (peak fluorescence F1−baseline fluorescence F0). […] Data were obtained from several independent experiments and performed in triplicates.

[2] = system: human taste cells BR-HTC8; test: Fluo-4 fluorescent calcium imaging assay in BR-HTC8; assay type: cell-based; conditions: for change of Fluo4-fluorescence / intracellular calcium on addition of the test molecule: BR-HTC8, increasing concentrations in KH-buffer with Ca2+; for Fluo-4 calcium response in the absence of extracellular Ca2+: KH-buffer without Ca2+, BR-HTC8, molecule alone; for Fluo-4 assay BR-HTC8: dose-dependent increase in intracellular calcium on stimulation with the cognate bitter molecule of the TAS2R named in the row; on Fluo-4 assay BR-HTC8: key: + indicates that the analysis was successful and that the mRNA was detected by RT-PCR or that stimulation of human taste cells with the respective taste molecule resulted in a dose-dependent increase in intracellular calcium or decrease in cellular membrane potential
Protocol: Before the assay, cells are maintained in HTC medium for at least 48 hours as described in Example 1. Cells are then trypsinized with accutase (e.g. PAA, L11-007) or TrypLE (e.g. Gibco, 12563) and seeded into poly-D-lysine coated 96-well assay plates (e.g. Corning) at a density of 15,000 cells/well in 100 μl HTC medium.
After 24 hours, the cells (still in 100 μl medium) are stained by addition of 100 μl of Fluo-4 staining solution, which consists of KH buffer (10 mM HEPES pH7.4 containing 118 mM NaCl, 4.7 mM KCl, 4.2 mM NaHCO3, 1.2 mM KH2PO4, 1.2 mM MgSO4, 1.3 mM CaCl2) containing 4 μM Fluo-4 (Molecular Probes) and incubation for 1 hour at 37° C. Final Fluo-4 concentration in the staining solution/medium mixture is 2 μM. Staining solution is then replaced by 80 μl KH-buffer per well and plates are transferred into a fluorescence microplate reader to monitor changes in Ca^2+-dependent fluorescence (excitation 488 nm, emission 530 nm) after the addition of 20 μl KH-buffer supplemented with the test molecule under investigation. The test molecule was added 16 seconds after starting the scan and baseline recording, mixed twice, and then recording continued for additional 44 seconds. Data points of a total of 18 reads were collected. Data analysis/Data recording—Calcium mobilization was measured as the change of peak fluorescence (ΔF) over the baseline level (F). Data were expressed as the mean S.E. of the ΔF/F value of replicated independent samples. Data analysis was done with software provided by the manufacturer of the microplate reader (e.g. Molecular Devices).
as §1
In order to perform to the Fluo-4 fluorescent calcium imaging experiment in the absence of extracellular Ca^2+ the procedure was conducted as described above, however, the KH-buffer was prepared without addition of Ca^2+. Measurement was started by addition of increasing concentrations of the taste molecules in KH-buffer without Ca^2+ to the cells. KH-buffer without Ca^2+ served as negative control and KH-buffer without Ca^2+ containing 1 μM ionomycin served as a positive control.
To test, whether stimulation of human taste cells with oxytocin leads to changes in intracellular calcium the Fluo-4 fluorescent calcium imaging assay was performed as described above in Example 5. Briefly, the human taste cells were seeded in 96-well plates and stained with 2 μM of the calcium-sensitive fluorescence dye Fluo4 in HTC/KH buffer medium for one hour at 37° C. with subsequent replacement of the staining solution with KH-buffer. Non-taste cells including HEK293 cells and non-lingual, proliferating primary cells isolated from the oral cavity served as a control and were treated equally throughout the procedure. Changes in Ca^2+-dependent Fluo-4 fluorescence were recorded on a Molecular Devices Fluorescence microplate reader.

BR-HTC38 cells = test: Fluo-4 fluorescent calcium imaging assay in TAS2R38-transduced BR-HTC38; assay type: cell-based, human; conditions: BR-HTC38 (TAS2R38 expressed) vs BR-HTC8
Protocol: Changes in Ca^2+-dependent Fluo-4 fluorescence were recorded on a Molecular Devices fluorescence microplate reader. Measurement was started by addition of increasing concentrations of the taste molecules in KH-buffer to the cells. KH-buffer served as negative control and KH-buffer containing 1 μM ionomycin served as a positive control. […] Calcium signals for each test molecule are depicted as Relative Fluorescence Units (RFU), which means that calcium mobilization in response to taste molecules was calculated dF/F0, with dF is (peak fluorescence F1−baseline fluorescence F0). […] Data were obtained from several independent experiments and performed in triplicates.

[3] = system: human taste cells BR-HTC8; test: FLIPR fluorescent membrane potential (FMP) imaging assay in BR-HTC8; assay type: cell-based; conditions: BR-HTC8, increasing concentrations in KH-buffer
Protocol: This cell depolarization was measured by using voltage-sensitive dyes including FLIPR fluorescent membrane potential (FMP) dye (Molecular Devices R8123). Before the assay, cells were maintained in HTC medium for at least 48 hours as described above in Example 1. Cells were then trypsinized with accutase (e.g. PAA, L11-007) or TrypLE (e.g. Gibco, 12563) and seeded into poly-D-lysine coated 96-well assay plates (Corning) at a density of 15,000 cells/well in […].
After 24 hours, medium was removed and the cells are washed once with 100 μl KH buffer (10 mM HEPES pH7.4 containing 118 mM NaCl, 4.7 mM KCl, 4.2 mM NaHCO3, 1.2 mM KH2PO4, 1.2 mM MgSO4, 1.3 mM CaCl2) and then stained with 200 μl KH buffer containing FLIPR FMP dye according instructions of the manufacturer […] and incubation for 2 hours at 37° C. The plates were then transferred into a fluorescence microplate reader to monitor changes in membrane potential-dependent fluorescence (excitation 530 nm, emission 565 nm) after the addition of 50 μl KH-buffer supplemented with the test molecule under investigation. The test molecule was added 16 seconds after starting the scan and baseline recording, mixed twice, and then recording continued for additional 74 seconds. Data points of a total of 35 reads were collected.
Data analysis/Data recording—Changes of the membrane potential was measured as the change of peak fluorescence (ΔF) over the baseline level (F). Data were expressed as the mean S.E. of the ΔF/F value of replicated independent samples. Data analysis was done with software provided by the manufacturer of the microplate reader (Molecular Devices).
(§2) To test, whether stimulation of human taste cells with taste molecules leads to changes in cellular membrane potential the FLIPR fluorescent membrane potential assay was performed as described above. Non-taste cells including HEK293 cells and non-lingual, proliferating primary cells isolated from the oral cavity served as a control and were treated equally throughout the procedure. Changes in membrane potential were recorded on a Molecular Devices Fluorescence microplate reader. Measurement was started by addition of increasing concentrations of the taste molecules in KH-buffer to the cells. KH-buffer served as negative control and KH-buffer containing 4 μM FCCP (e.g. Sigma, C2920) served as a positive control. […] Data were obtained from several independent experiments and performed in triplicates.
as §2, with “This cell depolarization can be measured by using voltage-sensitive dyes including FLIPR fluorescent membrane potential (FMP) dye (Molecular Devices R8123) as described above in Example 6. To” for “To”, “oxytocin” for “taste molecules”, “oxytocin” for “the taste molecules”

Row | SMILES | increase of Fluo4-fluorescence in control cells [1] | change of Fluo4-fluorescence / intracellular calcium on addition of the test molecule [2] | Fluo-4 calcium response in the absence of extracellular Ca2+ [2] | increase of intracellular calcium in response to salicin when combined with saccharin ([2]; absence of extracellular calcium, increasing salicin with four fixed concentrations of saccharin) | Fluo-4 assay BR-HTC8 [2] | dose-dependent Fluo-4 calcium response in BR-HTC38 compared with parental BR-HTC8 (BR-HTC38 cells) | change of cellular membrane potential (FLIPR FMP dye fluorescence) on addition of the test molecule [3]
1 | O=C1NS(=O)(=O)c2ccccc21 [Saccharin] | not in control cells | dose-dependent increase of Fluo4-fluorescence | cannot trigger a Ca^2+ response; also recorded: did not trigger increase of intracellular Ca^2+; also recorded: no response | strongly enhanced | + | enhanced | 
2 | OCc1ccccc1O[C@@H]1O[C@H](CO)[C@@H](O)[C@H](O)[C@H]1O [Salicin] | not in control cells | dose-dependent increase of Fluo4-fluorescence | increase of intracellular calcium; also recorded: dose-dependent increase of Fluo4-fluorescence |  | + | enhanced | did not elicit significant changes in cellular membrane potential
